Activity, inhibition and Vmax data for eleven molecules are collected here from ChEMBL document CHEMBL3351582, “A simple, general approach of allosteric coagulation enzyme inhibition through monosulfated hydrophobic scaffolds” (Bioorg Med Chem Lett, 2014).

Active and inactive are the calls of the source. No cut-off for these calls is given here.

In data set [1] the target is T1, Coagulation factor XII (Homo sapiens) (UniProt P00748).
T1 sequence (whole entry): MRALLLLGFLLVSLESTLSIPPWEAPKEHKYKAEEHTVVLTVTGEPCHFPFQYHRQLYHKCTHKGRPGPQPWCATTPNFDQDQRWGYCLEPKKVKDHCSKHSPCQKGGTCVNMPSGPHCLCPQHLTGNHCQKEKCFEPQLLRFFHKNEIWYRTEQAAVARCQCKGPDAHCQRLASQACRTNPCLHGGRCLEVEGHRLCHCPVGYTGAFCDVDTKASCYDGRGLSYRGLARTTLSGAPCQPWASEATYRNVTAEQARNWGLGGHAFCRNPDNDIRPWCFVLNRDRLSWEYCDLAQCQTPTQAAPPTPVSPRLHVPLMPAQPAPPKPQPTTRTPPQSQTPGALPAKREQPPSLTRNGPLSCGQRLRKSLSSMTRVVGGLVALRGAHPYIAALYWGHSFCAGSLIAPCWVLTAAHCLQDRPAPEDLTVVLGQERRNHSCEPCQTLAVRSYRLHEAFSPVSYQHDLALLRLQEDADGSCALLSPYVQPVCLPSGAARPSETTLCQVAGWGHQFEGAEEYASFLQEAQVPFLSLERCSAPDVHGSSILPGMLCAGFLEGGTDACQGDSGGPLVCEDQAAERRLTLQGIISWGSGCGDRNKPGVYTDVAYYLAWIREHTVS
Kind of data set: Inhibition of human factor 12a assessed as residual activity at 500 uM by spectrophotometric assay.

Data set [2] has as its target Prothrombin (Homo sapiens) (UniProt P00734). Kind of data set: Inhibition of human thrombin using spectrozyme TH as substrate assessed as residual activity at 500 uM by spectrophotometric assay.
Data set [3] shares this target. Kind of data set: Non-competitive inhibition of human thrombin using spectrozyme TH as substrate assessed as effect on substrate Km at 400 uM by Michaelis-Menten kinetics.
Data set [4] deals with T2, Coagulation factor VII (Homo sapiens) (UniProt P08709).
T2 sequence (whole entry): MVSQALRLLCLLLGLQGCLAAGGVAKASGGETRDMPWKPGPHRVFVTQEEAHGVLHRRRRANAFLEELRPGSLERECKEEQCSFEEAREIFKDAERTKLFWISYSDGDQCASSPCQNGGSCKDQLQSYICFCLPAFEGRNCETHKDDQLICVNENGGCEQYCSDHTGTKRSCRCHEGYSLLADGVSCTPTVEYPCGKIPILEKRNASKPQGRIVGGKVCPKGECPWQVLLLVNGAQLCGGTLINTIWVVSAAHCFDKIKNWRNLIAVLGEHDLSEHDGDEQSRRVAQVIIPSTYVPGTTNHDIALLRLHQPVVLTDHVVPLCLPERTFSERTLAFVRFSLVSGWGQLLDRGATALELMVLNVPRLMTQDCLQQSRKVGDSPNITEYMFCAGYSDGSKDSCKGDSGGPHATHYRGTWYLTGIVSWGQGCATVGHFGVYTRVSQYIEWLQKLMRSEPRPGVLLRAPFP
In words: Inhibition of human factor 7a assessed as residual activity at 500 uM by spectrophotometric assay.

For data set [5], the target named is Coagulation factor X (Homo sapiens) (UniProt P00742). In words: Inhibition of human factor 10a assessed as residual activity at 500 uM by spectrophotometric assay.
Data set [6] has as its target Coagulation factor IX (Homo sapiens) (UniProt P00740). In words: Inhibition of human factor 9a assessed as residual activity at 500 uM by spectrophotometric assay.
The target in data set [7] is Coagulation factor XI (Homo sapiens) (UniProt P03951). In words: Inhibition of human factor 11a assessed as residual activity at 500 uM by spectrophotometric assay.
The subject of data set [8] is COc1cc2occ(C(=O)OC(C)(C)C)c2cc1OCc1nc2ccc(OS(=O)(=O)O)cc2s1. The following applies: Homo sapiens; 400 uM.
Description: Non-competitive inhibition of human thrombin using spectrozyme TH as substrate assessed as reduction in substrate Vmax at 400 uM by Michaelis-Menten kinetics

Chain of Coagulation factor IX (Homo sapiens) (P00740 47-191 limits assumed): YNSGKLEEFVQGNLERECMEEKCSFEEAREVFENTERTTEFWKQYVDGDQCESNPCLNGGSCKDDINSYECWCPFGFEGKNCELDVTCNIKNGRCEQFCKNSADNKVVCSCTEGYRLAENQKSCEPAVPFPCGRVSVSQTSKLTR
Chain of Coagulation factor IX (Homo sapiens) (P00740 227-461 limits assumed): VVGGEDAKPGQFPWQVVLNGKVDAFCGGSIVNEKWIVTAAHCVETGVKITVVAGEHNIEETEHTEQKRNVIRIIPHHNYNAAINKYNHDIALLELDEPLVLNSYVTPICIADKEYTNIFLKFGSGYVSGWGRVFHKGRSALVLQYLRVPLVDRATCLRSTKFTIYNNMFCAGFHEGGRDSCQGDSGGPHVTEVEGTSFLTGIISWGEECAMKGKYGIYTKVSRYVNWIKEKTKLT
Chain of Coagulation factor X (Homo sapiens) (P00742 41-179 limits assumed): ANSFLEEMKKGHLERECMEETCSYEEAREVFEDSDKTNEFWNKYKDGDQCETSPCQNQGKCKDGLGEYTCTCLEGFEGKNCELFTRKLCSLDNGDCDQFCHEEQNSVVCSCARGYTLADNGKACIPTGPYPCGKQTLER
Chain of Coagulation factor X (Homo sapiens) (P00742 235-488 limits assumed): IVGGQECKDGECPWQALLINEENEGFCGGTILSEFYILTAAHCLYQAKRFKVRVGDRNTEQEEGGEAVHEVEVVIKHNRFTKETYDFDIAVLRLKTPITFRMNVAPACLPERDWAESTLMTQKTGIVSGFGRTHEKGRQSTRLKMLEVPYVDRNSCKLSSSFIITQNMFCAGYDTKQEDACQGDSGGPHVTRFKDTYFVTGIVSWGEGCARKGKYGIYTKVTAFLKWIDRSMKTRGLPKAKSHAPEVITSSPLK
Chain of Coagulation factor XI (Homo sapiens) (P03951 19-387 limits assumed): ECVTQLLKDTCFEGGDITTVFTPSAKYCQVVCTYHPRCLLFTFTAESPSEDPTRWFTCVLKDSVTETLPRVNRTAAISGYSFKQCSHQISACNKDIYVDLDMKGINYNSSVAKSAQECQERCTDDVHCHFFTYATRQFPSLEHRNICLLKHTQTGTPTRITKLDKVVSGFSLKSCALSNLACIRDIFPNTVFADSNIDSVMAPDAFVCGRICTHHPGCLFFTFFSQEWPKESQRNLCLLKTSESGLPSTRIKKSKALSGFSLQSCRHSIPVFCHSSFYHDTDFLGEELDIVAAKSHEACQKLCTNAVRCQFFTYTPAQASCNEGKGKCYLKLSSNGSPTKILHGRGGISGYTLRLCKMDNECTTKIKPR
Chain of Coagulation factor XI (Homo sapiens) (P03951 388-625 limits assumed): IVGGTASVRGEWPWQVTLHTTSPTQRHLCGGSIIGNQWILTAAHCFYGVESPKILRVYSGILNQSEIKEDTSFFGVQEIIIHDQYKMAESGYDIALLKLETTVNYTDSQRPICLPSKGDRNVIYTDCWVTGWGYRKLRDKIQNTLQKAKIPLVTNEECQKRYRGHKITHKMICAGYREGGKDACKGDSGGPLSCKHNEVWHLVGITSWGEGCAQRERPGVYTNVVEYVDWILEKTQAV

For the molecule `COc1cc2occ(C(=O)OC(C)(C)C)c2cc1OCc1nc2ccc(OS(=O)(=O)O)cc2s1`, the Activity was determined as 100% in data set [1]; 30% in data set [2]; 98% in data set [4]; 22% in data set [5]; 101% in data set [6]; 0% in data set [7]. In data set [3], the inhibition entry is “Active”.
With `CCOC(=O)c1c(C)oc2cc(OC)c(OCc3oc4cc(OC)c(OCc5nc6ccc(OS(=O)(=O)O)cc6s5)cc4c3C(=O)OCC)cc12`, the Activity in data set [1] came out at 100%; in data set [2] it was 104%; in data set [4], 100%; in data set [5], 98%; in data set [6], 82%; in data set [7], 62%.
Regarding `CCOC(=O)c1c(COc2cc3c(C(=O)OCC)c(COc4cc5c(C(=O)OCC)c(C)oc5cc4OC)oc3cc2OC)[nH]c2ccc(OS(=O)(=O)O)cc12`, the Activity in data set [1] turned out to be 97%; in data set [2] it was 46%; in data set [4], 92%; in data set [5], 33%; in data set [6], 109%; in data set [7], 16%.
With `Cc1nc2ccc(OS(=O)(=O)O)cc2s1`, the Activity in data set [1] was found to be 95%; in data set [2], 99%; in data set [4], 91%; in data set [5], 77%; in data set [6], 94%; in data set [7], 52%.
Take `CCOC(=O)c1c(C)[nH]c2ccc(OCc3c(C(=O)OCC)c4cc(OS(=O)(=O)O)ccc4n3C(=O)OC(C)(C)C)cc12`: the Activity in data set [1] turned out to be 92%; in data set [2] it was 42%; in data set [4], 99%; in data set [5], 0%; in data set [6], 98%; in data set [7], 0%.
`Cc1nc2ccc(OCc3nc4ccc(OS(=O)(=O)O)cc4s3)cc2s1`: the Activity in data set [1] is 97%; in data set [2], 48%; in data set [4], 102%; in data set [5], 105%; in data set [6] it was 110%; in data set [7], 120%.
On to `CCOC(=O)c1c(COc2cc3c(C(=O)OCC)coc3cc2OC)[nH]c2ccc(OS(=O)(=O)O)cc12`, for which the Activity stood at 97% in data set [1]; 102% in data set [2]; 87% in data set [4]; 34% in data set [5]; 98% in data set [6]; 111% in data set [7].
As for `CCOC(=O)c1c(Cc2ccccc2)oc2cc(OC)c(OCc3nc4ccc(OS(=O)(=O)O)cc4s3)cc12`, the Activity in data set [1] stood at 96%; in data set [2] it was 108%; in data set [4], 100%; in data set [5], 90%; in data set [6], 90%; in data set [7] it was 88%.
Consider “Prothrombin (Homo sapiens) (from UniProt P00734)”, for which the Vmax in data set [8] came out at 24.5 mAU/min/µM.
Turning to `CCOC(=O)c1c(C)[nH]c2ccc(OS(=O)(=O)O)cc12`, the Activity in data set [1] came out at 90%; in data set [2], 100%; in data set [4] it was 90%; in data set [5] it was 120%; in data set [6], 98%; in data set [7] it was 114%.
`CCOC(=O)c1c(COc2cc3c(C(=O)OCC)c(Cc4ccccc4)oc3cc2OC)[nH]c2ccc(OS(=O)(=O)O)cc12`: the Activity was 100% in data set [1]; 29% in data set [2]; 109% in data set [4]; 37% in data set [5]; 98% in data set [6]; 0% in data set [7].
